According to article PMC8347432 (2021):

Assays:
[1] = tested on: octamer duplex d(GCGATCGC)2 (3) (DNA, duplex) GCGATCGC; experiment: DOSY NMR (PGSE diffusion coefficients); details: 25 mM NaCl, 25 mM K3PO4, D2O buffer, pH 6.4, 10 °C, 0.29 mM compound
[2] = tested on: octamer duplex d(GCGATCGC)2 (3) (DNA, duplex) GCGATCGC; experiment: 1H NMR titration (chemical shift); details: 25 mM NaCl, 25 mM K3PO4, D2O buffer, pH 6.0, 10 °C, 0.29 mM compound

| Compound | Ka ([1]; 0.87 mM octamer) | Ka [2] | Ka ([1]; 0.92 mM octamer) | Ka ([2]; 5.89 ± 1.07 omitting H12 and H14) |
| --- | --- | --- | --- | --- |
| CCc1c2c(nc3ccc(O)c(CN4CCC4)c13)-c1cc3c(c(=O)n1[C@@H]2CO)COC(=O)[C@]3(O)CC | 2.0 ± 0.3 mM⁻¹ | 3.76 ± 1.19 mM⁻¹ | – | – |
| CCc1c2c(nc3ccc(O)c(CN4CCC4)c13)-c1cc3c(c(=O)n1[C@H]2CO)COC(=O)[C@]3(O)CC | – | – | 5.9 ± 0.3 mM⁻¹ | 5.00 ± 2.02 mM⁻¹ |
